Measured values as given in PMC4822798 (Clinical Pharmacology : Advances and Applications, 2016).
Read-outs that look alike come from different tables or passages of the source.

Legend:
[1] = cited from earlier work
MRSA strains = assay: Teicoplanin susceptibility testing; format: cell-based, methicillin-resistant Staphylococcus aureus; details: Mueller-Hinton agar, E-test, 16–20 hours at 37°C
MRSA infections [2] = assay: PK/PD analysis: AUC24/MIC ratio versus bacteriological response in patients; format: in vivo, patients (human); details: for probability of treatment success: logistic regression, 46 patients
[3] = mean population PK parameter, Japanese patients; cited from earlier work
MRSA infections [4] = details: cited from earlier work; for AUC24 value on the third day: ref 12 (Hagihara et al)
MRSA isolates = details: all isolates, cited from earlier work

## CN[C@H](CC(C)C)C(=O)N[C@H]1C(=O)N[C@@H](CC(N)=O)C(=O)N[C@H]2C(=O)N[C@H]3C(=O)N[C@H](C(=O)N[C@H](C(=O)O)c4cc(O)cc(O)c4-c4cc3ccc4O)[C@H](O)c3ccc(c(Cl)c3)Oc3cc2cc(c3O[C@@H]2O[C@H](CO)[C@@H](O)[C@H](O)[C@H]2O[C@H]2C[C@](C)(N)[C@H](O)[C@H](C)O2)Oc2ccc(cc2Cl)[C@H]1O [vancomycin]
[1]
  trough concentrations needed to achieve an AUC value of ≥400: 10 to 20 µg/mL
[1]; guidelines for therapeutic drug monitoring
  AUC/MIC ratio associated with clinical and bacteriological responses: ≥ 400

## teicoplanin
MRSA strains; 2.2% of the 46 MRSA strains
  MIC: 0.38 mg/L
MRSA strains; 6.5% of the 46 MRSA strains
  MIC: 0.5 mg/L
MRSA strains; 13.0% of the 46 MRSA strains
  MIC: 1.5 mg/L
MRSA strains; 34.8% of the 46 MRSA strains
  MIC: 1.0 mg/L
MRSA strains; 43.5% of the 46 MRSA strains
  MIC: 0.75 mg/L
MRSA infections [2]; AUC24/MIC ratio of 500 µg·h/mL on day 3
  probability of treatment success: 0.50
MRSA infections [2]; AUC24/MIC ratio of 700 µg·h/mL on day 3
  probability of treatment success: 0.72
MRSA infections [2]; AUC24/MIC ratio of 900 µg·h/mL on day 3
  probability of treatment success: 0.87
MRSA infections [2]; Kaplan–Meier curve analysis, P<0.05
  bacteriological response, AUC24/MIC ratios of ≥900 (n=15) versus <900 (n=31): significantly stronger bacteriological responses
MRSA infections [2]; patients with MRSA infections
  AUC24/MIC ratio required to ensure bacteriological responses: ≥ 900 µg·h/mL
[3]
  distribution volume of the central compartment: 10.4 L
  transfer rate constant from the central compartment to the peripheral compartment: 0.38 h⁻¹
  transfer rate constant from the peripheral compartment to the central compartment: 0.0485 h⁻¹
MRSA infections [4]
  trough concentrations effective for treating most infections: > 13 µg/mL
MRSA infections [4]; day 3 of teicoplanin therapy, ref 14 (Ogawa et al)
  log[Cmax, unbound/MIC] threshold for achieving treatment success: 0.30
MRSA infections [4]; treatment failure group
  AUC24 value on the third day: 652.9 ± 83.4 µg·h/mL
MRSA infections [4]; treatment success group
  AUC24 value on the third day: 897.6 ± 71.7 µg·h/mL
MRSA isolates; ref 12
  MIC: ≤ 1.0 mg/L
MRSA isolates; ref 13
  MIC: < 2.0 mg/L
